Tests used:
[1] = system: stressed and non-stressed animals; experiment: Resident/Intruder Assay (Chronic Social Stress Assay); format: in vivo; design: Locomotor Mean ± SD / Rearing Mean ± SD / Sniffing Down Mean ± SD / Sniffing Up Mean ± SD: unit not given here
From the text: The behavioral resident/intruder assay is used to screen compounds for anti-depressant-like activity.

Sprague Dawley rats = experiment: Forced Swim Test (Acute); format: in vivo, rat
Method: The Forced Swim test (FST) is a commonly used procedure to screen compounds for possible antidepressant properties. This test is also known as the behavioral despair test. Rodents placed in […] tanks filled with water present a wide variety of escape or immobility behaviors. Antidepressant drugs from different classes markedly increase escape behaviors and/or decrease latency or duration of immobility.
Venlafaxine and desipramine were dissolved in water. All drugs and their vehicles were administered orally (p.o.) by gavage in a volume of 5 mL/kg.
Male Sprague Dawley rats (140 to 160 g) from Charles River Laboratories Wilmington, Mass. were used. The animals went through a five-day quarantine period before being subjected to the experimental procedure.
Animals were housed in groups of four in plastic cages at an ambient temperature of 21° C. to 23° C. with an automated 12 hour light/dark cycle and access to water and commercial rodent food ad libitum. Animals were not handled more than for the routine bedding change prior to pre-test swim session.
Each experiment consisted of seven treatment groups with n=4 animals per group. A total of 28 animals per experiment were used. Two consecutive experiments (1 and 2, 3 and 4, and 5 and 6) were exact replicas of each other. […] One treatment group of n=4 animals in each experiment was a vehicle treated group. […] In experiments 5 and 6 the effects of venlafaxine and maprotyline at 12 mg/kg, 30 mg/kg, and 60 mg/kg were tested.
The basic apparatus consisted of a cylinder (46 cm tall×˜20 cm diameter) filled with water to 30 cm deep, at a temperature of 25±1° C. The automated version of the FST was used to perform the experiments. Plumbing for automatic filling and emptying water connected the four cylinders. Cylinders were placed in the dividing chambers 25 cm wide to separate animals visually. Each 5-minute experimental session was videotaped and analyzed in real time by computer software (Clever Systems, Inc.) for four animals at a time. The immobility, swimming, climbing and escape times were recorded by the software. The four activities are defined as follow. Immobility: the animal floats motionlessly or makes only those movements necessary to keep its head above water; Climb: the animal vigorously moves vertically while scratching the wall around the cylinder; Swim: the animal moves horizontally around in the cylinder more than necessary to keep its head above water; and Escape: sum of all vigorous active movements.
The ability of a test compound to decrease the duration or frequency of immobility, or changes in swimming, climbing and escape times, was measured using the FST procedure described above. […] The analysis of the results in the studies described was focused on the immobility time during 5-minute test session.
There were two swim sessions in each experiment. First, a pre-test swim session for 15 minutes was performed. Following 48 hours later was a test session of 5-minute duration. Upon completion of a swim session, each animal was placed under a heat lamp in a cage with soft bedding for approximately 15 minutes to prevent hypothermia.
Animals were pre-treated with a vehicle or test compound after completing the pre-test swim session, then 24 hours later and then shortly prior to the 5-minute test session; i.e., three injections were given to each animal between the two swim sessions that occurred on 3 consecutive days.
Data were analyzed using GraphPad Prism software (GraphPad Software, Inc. San Diego, Calif.). For the comparison of the effect of different doses for various drugs on immobility in the FST one-way ANOVA was used followed by Dunnett's multiple comparison test. […] The ED50 and Emax values were statistically compared using two-tail t-test.

[2] = Median toxic dose (TD50) / toxic doses of Compound #8 and reference drugs; settings: Sprague-Dawley, rat, in vivo, ip
[3] = non-stressed, 10 mg/kg p.o., week 1
[4] = non-stressed, 10 mg/kg p.o., week 5
[5] = stressed, 10 mg/kg p.o., week 1
[6] = stressed, 10 mg/kg p.o., week 5
[7] = non-stressed, 60 mg/kg p.o., week 1
[8] = non-stressed, 60 mg/kg p.o., week 5
[9] = non-stressed, 120 mg/kg p.o., week 1
[10] = non-stressed, 120 mg/kg p.o., week 5
[11] = stressed, 60 mg/kg p.o., week 1
[12] = stressed, 60 mg/kg p.o., week 5
[13] = stressed, 120 mg/kg p.o., week 1
[14] = stressed, 120 mg/kg p.o., week 5

Compound: COc1ccc(C(CN(C)C)C2(O)CCCCC2)cc1 (stereo not drawn) [Venlafaxine, venlafaxine, reference compound]
- Forced Swim Test: Immobility during 5 min: Week 5 Mean ± SD ([1]; non-stressed, 10 mg/kg p.o.): 181.8 ± 27.6
- Sucrose Intake Mean ± SD Week 3 ([1]; non-stressed, 10 mg/kg p.o.): 88.4 ± 9.1
- Sucrose Intake Mean ± SD Week 4 ([1]; non-stressed, 10 mg/kg p.o.): 91.5 ± 5.6
- Sucrose Intake Mean ± SD Week 5 ([1]; non-stressed, 10 mg/kg p.o.): 87.9 ± 15.0
- Locomotor Mean ± SD [1, 3]: 9094.9 ± 1832.7
- Rearing Mean ± SD [1, 3]: 48.3 ± 11.2
- Sniffing Down Mean ± SD [1, 3]: 27.1 ± 5.2
- Sniffing Up Mean ± SD [1, 3]: 43.3 ± 8.9
- Locomotor Mean ± SD [1, 4]: 8078.6 ± 1665.2
- Rearing Mean ± SD [1, 4]: 40.1 ± 8.9
- Sniffing Down Mean ± SD [1, 4]: 27 ± 4.7
- Sniffing Up Mean ± SD [1, 4]: 38.6 ± 7.7
- Forced Swim Test: Immobility during 5 min: Week 5 Mean ± SD ([1]; stressed, 10 mg/kg p.o.): 190.4 ± 36.8
- Sucrose Intake Mean ± SD Week 3 ([1]; stressed, 10 mg/kg p.o.): 74.5 ± 16.7
- Sucrose Intake Mean ± SD Week 4 ([1]; stressed, 10 mg/kg p.o.): 76.1 ± 18.2
- Sucrose Intake Mean ± SD Week 5 ([1]; stressed, 10 mg/kg p.o.): 73.3 ± 17.6
- Locomotor Mean ± SD [1, 5]: 6233.6 ± 1087.2
- Rearing Mean ± SD [1, 5]: 30.8 ± 6.6
- Sniffing Down Mean ± SD [1, 5]: 14.9 ± 3.5
- Sniffing Up Mean ± SD [1, 5]: 28.6 ± 6.5
- Locomotor Mean ± SD [1, 6]: 6250.1 ± 789.2
- Rearing Mean ± SD [1, 6]: 35.1 ± 7.4
- Sniffing Down Mean ± SD [1, 6]: 18.3 ± 3.6
- Sniffing Up Mean ± SD [1, 6]: 33.1 ± 7.5
- doses at which effect on immobility was statistically significant vs vehicle (Sprague Dawley rats; p.o.): 30 mg/kg and 60 mg/kg

Compound: NS(=O)(=O)NC[C@H]1COc2cc(Cl)ccc2O1 [Compound #8, (2S)-(−)-N-(6-Chloro-2,3-dihydro-benzo[1,4]dioxin-2-ylmethyl)-sulfamide]
- activity in the resident/intruder assay ([1]; 60 and 120 mg/kg p.o.): active in the resident/intruder assay
- Forced Swim Test: Immobility during 5 min: Week 5 Mean ± SD ([1]; non-stressed, 60 mg/kg p.o.): 164.3 ± 25.3
- Sucrose Intake Mean ± SD Week 3 ([1]; non-stressed, 60 mg/kg p.o.): 90.9 ± 3.5
- Sucrose Intake Mean ± SD Week 4 ([1]; non-stressed, 60 mg/kg p.o.): 92.3 ± 1.4
- Sucrose Intake Mean ± SD Week 5 ([1]; non-stressed, 60 mg/kg p.o.): 88.9 ± 7.4
- Locomotor Mean ± SD [1, 7]: 8288.6 ± 2117.5
- Rearing Mean ± SD [1, 7]: 49.6 ± 8.7
- Sniffing Down Mean ± SD [1, 7]: 20.9 ± 3.3
- Sniffing Up Mean ± SD [1, 7]: 44.1 ± 9.4
- Locomotor Mean ± SD [1, 8]: 7922.9 ± 1476
- Rearing Mean ± SD [1, 8]: 37.4 ± 11.5
- Sniffing Down Mean ± SD [1, 8]: 23.5 ± 6.4
- Sniffing Up Mean ± SD [1, 8]: 33.4 ± 11.2
- Forced Swim Test: Immobility during 5 min: Week 5 Mean ± SD ([1]; non-stressed, 120 mg/kg p.o.): 136.7 ± 34.9
- Sucrose Intake Mean ± SD Week 3 ([1]; non-stressed, 120 mg/kg p.o.): 83.6 ± 22.1
- Sucrose Intake Mean ± SD Week 4 ([1]; non-stressed, 120 mg/kg p.o.): 91.3 ± 4.6
- Sucrose Intake Mean ± SD Week 5 ([1]; non-stressed, 120 mg/kg p.o.): 89.3 ± 5.1
- Locomotor Mean ± SD [1, 9]: 8056.6 ± 867.2
- Rearing Mean ± SD [1, 9]: 42 ± 10.6
- Sniffing Down Mean ± SD [1, 9]: 22.8 ± 3.7
- Sniffing Up Mean ± SD [1, 9]: 37.6 ± 8.4
- Locomotor Mean ± SD [1, 10]: 8648.3 ± 1060.9
- Rearing Mean ± SD [1, 10]: 36.5 ± 6.3
- Sniffing Down Mean ± SD [1, 10]: 25.5 ± 4.1
- Sniffing Up Mean ± SD [1, 10]: 33.5 ± 5.9
- Forced Swim Test: Immobility during 5 min: Week 5 Mean ± SD ([1]; stressed, 60 mg/kg p.o.): 175.1 ± 29.5
- Sucrose Intake Mean ± SD Week 3 ([1]; stressed, 60 mg/kg p.o.): 92.1 ± 3.2
- Sucrose Intake Mean ± SD Week 4 ([1]; stressed, 60 mg/kg p.o.): 89.5 ± 6.9
- Sucrose Intake Mean ± SD Week 5 ([1]; stressed, 60 mg/kg p.o.): 92.4 ± 4.5
- Locomotor Mean ± SD [1, 11]: 5858.5 ± 708.2
- Rearing Mean ± SD [1, 11]: 26.5 ± 6.1
- Sniffing Down Mean ± SD [1, 11]: 13 ± 3.3
- Sniffing Up Mean ± SD [1, 11]: 25 ± 7.3
- Locomotor Mean ± SD [1, 12]: 7080.9 ± 1238.7
- Rearing Mean ± SD [1, 12]: 32.8 ± 10.3
- Sniffing Down Mean ± SD [1, 12]: 24.8 ± 5.7
- Sniffing Up Mean ± SD [1, 12]: 30.6 ± 11.1
- Forced Swim Test: Immobility during 5 min: Week 5 Mean ± SD ([1]; stressed, 120 mg/kg p.o.): 128.3 ± 37.4
- Sucrose Intake Mean ± SD Week 3 ([1]; stressed, 120 mg/kg p.o.): 76.1 ± 20.8
- Sucrose Intake Mean ± SD Week 4 ([1]; stressed, 120 mg/kg p.o.): 75.5 ± 20.6
- Sucrose Intake Mean ± SD Week 5 ([1]; stressed, 120 mg/kg p.o.): 87.4 ± 7.9
- Locomotor Mean ± SD [1, 13]: 6168.3 ± 1132.1
- Rearing Mean ± SD [1, 13]: 29.3 ± 7
- Sniffing Down Mean ± SD [1, 13]: 13 ± 3.6
- Sniffing Up Mean ± SD [1, 13]: 27.5 ± 6.1
- Locomotor Mean ± SD [1, 14]: 6444 ± 1010.3
- Rearing Mean ± SD [1, 14]: 30.1 ± 6.4
- Sniffing Down Mean ± SD [1, 14]: 22.5 ± 4.1
- Sniffing Up Mean ± SD [1, 14]: 30.4 ± 7.5
- TD50 [2]: ~100 mg/kg
- effect on immobility vs control (Sprague Dawley rats; 30 mg/kg p.o., large variability between individual rats): not significantly different from control
- Emax (immobility) in the FST (Sprague Dawley rats; p.o.): 67.0 ± 11.6 s
- doses at which effect on immobility was statistically significant vs vehicle (Sprague Dawley rats; p.o.): 12 mg/kg, 60 mg/kg, and 120 mg/kg

From patent US8937096B2, “Use of benzo-fused heterocyle sulfamide derivatives for the treatment of mania and bipolar disorder” (priority 2005, dated 2015)
